Where a SMILES comes first, the peptide text is derived from it. Bridges are numbered along the chain shown (N, C = ends). [ ]: non-standard residue; d: D form. The star is where a group is joined. ξ: configuration not given here. Phe(4-CONH2) = NC(=O)c1ccc(C[C@H](N)C(=O)O)cc1; Phe(4-COOH) = N[C@@H](Cc1ccc(C(=O)O)cc1)C(=O)O; Bip = N[C@@H](Cc1ccc(-c2ccccc2)cc1)C(=O)O; Phe(3-Me) = Cc1cccc(C[C@H](N)C(=O)O)c1; Val(3-OH) = CC(C)(O)[C@H](N)C(=O)O; Cha = N[C@@H](CC1CCCCC1)C(=O)O; Thr(3ξ) = CC(O)[C@H](N)C(=O)O; 12Ado = NCCCCCCCCCCCC(=O)O; Carboxymethyl = O=C(O)C*; NMeA = CN[C@@H](C)C(=O)O; Orn = NCCC[C@H](N)C(=O)O; Aun = NCCCCCCCCCCC(=O)O; Dab = NCC[C@H](N)C(=O)O; Dap = NC[C@H](N)C(=O)O; AEEA = NCCOCCOCC(=O)O

T1 sequence (Q15116 25-288): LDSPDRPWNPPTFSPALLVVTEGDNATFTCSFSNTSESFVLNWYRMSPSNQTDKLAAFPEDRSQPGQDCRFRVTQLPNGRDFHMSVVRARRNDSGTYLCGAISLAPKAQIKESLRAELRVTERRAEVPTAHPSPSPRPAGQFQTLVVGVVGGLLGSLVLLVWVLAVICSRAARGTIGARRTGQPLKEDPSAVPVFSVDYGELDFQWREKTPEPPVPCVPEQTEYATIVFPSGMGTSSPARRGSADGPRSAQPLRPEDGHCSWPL

One assay has as its target T1, PD-1/PD-L1 interaction (PE-labeled human PD-L1-Ig binding to Jurkat cell line over-expressing human PD-1) (Homo sapiens, UniProt Q15116).
T1 construct: expressed in transfected cells; host or cells: Jurkat
Nature of the assay: Jurkat-PD-1 Cell Binding High-Content Screening Assay (CBA). To be noted: Jurkat-hPD-1 cells, PE-labeled PD-L1-Ig 20 nM final; read-out: Jurkat HPD1 PDL1 IC50. The essentials: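 Read-out: high-content imaging of cell-bound PE fluorescence, with Hoechst 33342 nuclear counterstain after paraformaldehyde fixation. Before labeled ligand (20 nM final, 1 h) was added, compound sat on the cells for 2 h at 37 °C in DMEM/10% FCS.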
With `Cc1cccc(C[C@@H]2NC(=O)[C@H](CC(=O)O)NC(=O)[C@H](Cc3ccc(OCC(=O)O)cc3)NC(=O)[C@H](Cc3ccc(C(N)=O)cc3)NC(=O)CSC[C@@H](C(=O)N[C@H](CC(N)=O)C(=O)NCCOCCOCC(=O)NCCCCCCCCCCC(=O)O)NC(=O)[C@H](CO)NC(=O)[C@H](C(C)C)NC(=O)[C@H](CC3CCCCC3)NC(=O)[C@H](CCN)NC(=O)[C@@H](CC(C)C)NC(=O)[C@H](C)N(C)C(=O)[C@H](Cc3ccc(O)cc3)NC(=O)[C@H](Cc3ccc(-c4ccccc4)cc3)NC(=O)[C@H](Cc3ccc(OCC(=O)O)cc3)NC2=O)c1` [Example 2423] ({CH2CO}-[Phe(4-CONH2)]Y(Carboxymethyl)D[Phe(3-Me)]Y(Carboxymethyl)[Bip]Y[NMeA][dL][Dab][Cha]VSC[dN][AEEA][Aun]-OH; thioether N-14), the IC50 (in general, the concentration needed to halve the response being measured) was found to be 14.2 nM. Same read-out and setting: then `Cc1cccc(C[C@@H]2NC(=O)[C@H](CC(=O)O)NC(=O)[C@H](Cc3ccc(C(=O)O)cc3)NC(=O)[C@H](C(C)O)NC(=O)CSC[C@@H](C(=O)N[C@@H](CCCN)C(=O)N[C@@H](CO)C(=O)NCCCCCCCCCCCC(=O)O)NC(=O)[C@H](CO)NC(=O)[C@H](CCCCN)NC(=O)[C@H](CC3CCCCC3)NC(=O)[C@H](CCN)NC(=O)[C@@H](CC(C)C)NC(=O)[C@H](C)N(C)C(=O)[C@H](Cc3ccc(OCC(=O)O)cc3)NC(=O)[C@H](Cc3ccc(-c4ccccc4)cc3)NC(=O)[C@H](Cc3ccc(OCC(=O)O)cc3)NC2=O)c1` (stereo partly drawn) [Example 2424] ({CH2CO}-[Thr(3ξ)][Phe(4-COOH)]D[Phe(3-Me)]Y(Carboxymethyl)[Bip]Y(Carboxymethyl)[NMeA][dL][Dab][Cha]KSC[Orn]S[12Ado]-OH; thioether N-14), with 108 nM; and `Cc1cccc(C[C@@H]2NC(=O)[C@H](CC(=O)O)NC(=O)[C@H](Cc3ccc(OCC(=O)O)cc3)NC(=O)[C@H](CCN)NC(=O)CSC[C@@H](C(=O)N[C@@H](CCN)C(=O)NCCCCCCCCCCC(=O)O)NC(=O)[C@H](CO)NC(=O)[C@H](C(C)O)NC(=O)[C@H](CC3CCCCC3)NC(=O)[C@H](CCN)NC(=O)[C@@H](CC(C)C)NC(=O)[C@H](C)N(C)C(=O)[C@H](Cc3ccc(OCC(=O)O)cc3)NC(=O)[C@H](Cc3ccc(-c4ccccc4)cc3)NC(=O)[C@H](Cc3ccc(OCC(=O)O)cc3)NC2=O)c1` (stereo partly drawn) [Example 2425] ({CH2CO}-[Dab]Y(Carboxymethyl)D[Phe(3-Me)]Y(Carboxymethyl)[Bip]Y(Carboxymethyl)[NMeA][dL][Dab][Cha][Thr(3ξ)]SC[Dab][Aun]-OH; thioether N-14), with 15.6 nM.

Still in this assay, the particulars now being: PE-labeled PD-L1-Ig 20 nM final, Jurkat-hPD-1 cells; read-out: Jurkat HPD1 PDL1 IC50.
For the molecule `Cc1cccc(C[C@@H]2NC(=O)[C@H](CC(=O)O)NC(=O)[C@H](Cc3ccc(OCC(=O)O)cc3)NC(=O)[C@H](C(C)O)NC(=O)CSC[C@@H](C(=O)N[C@@H](CCN)C(=O)NCCCCCCCCCCC(=O)O)NC(=O)[C@H](CO)NC(=O)[C@H](Cc3cnc[nH]3)NC(=O)[C@H](CC3CCCCC3)NC(=O)[C@H](CCN)NC(=O)[C@@H](CC(C)C)NC(=O)[C@H](C)N(C)C(=O)[C@H](Cc3ccc(OCC(=O)O)cc3)NC(=O)[C@H](Cc3ccc(-c4ccccc4)cc3)NC(=O)[C@H](Cc3ccc(OCC(=O)O)cc3)NC2=O)c1` (stereo partly drawn) [Example 2426] ({CH2CO}-[Thr(3ξ)]Y(Carboxymethyl)D[Phe(3-Me)]Y(Carboxymethyl)[Bip]Y(Carboxymethyl)[NMeA][dL][Dab][Cha]HSC[Dab][Aun]-OH; thioether N-14), the IC50 worked out at 36 nM. On the same count and under the same terms, the same measure for `Cc1cccc(C[C@@H]2NC(=O)[C@H](CC(=O)O)NC(=O)[C@H](Cc3ccc(OCC(=O)O)cc3)NC(=O)[C@H](CN)NC(=O)CSC[C@@H](C(=O)N[C@@H](CCN)C(=O)NCCCCCCCCCCC(=O)O)NC(=O)[C@H](CO)NC(=O)[C@H](Cc3cnc[nH]3)NC(=O)[C@H](CC3CCCCC3)NC(=O)[C@H](CCN)NC(=O)[C@@H](CC(C)C)NC(=O)[C@H](C)N(C)C(=O)[C@H](Cc3ccc(OCC(=O)O)cc3)NC(=O)[C@H](Cc3ccc(-c4ccccc4)cc3)NC(=O)[C@H](Cc3ccc(OCC(=O)O)cc3)NC2=O)c1` [Example 2427] ({CH2CO}-[Dap]Y(Carboxymethyl)D[Phe(3-Me)]Y(Carboxymethyl)[Bip]Y(Carboxymethyl)[NMeA][dL][Dab][Cha]HSC[Dab][Aun]-OH; thioether N-14): 30.7 nM; for `CC(C)C[C@H]1NC(=O)[C@H](C)N(C)C(=O)[C@H](Cc2ccc(OCC(=O)O)cc2)NC(=O)[C@H](Cc2ccc(-c3ccccc3)cc2)NC(=O)[C@H](Cc2ccc(OCC(=O)O)cc2)NC(=O)[C@H](Cc2c[nH]c3ccccc23)NC(=O)[C@H](CC(=O)O)NC(=O)[C@H](Cc2ccc(OCC(=O)O)cc2)NC(=O)[C@H](C(C)O)NC(=O)CSC[C@@H](C(=O)N[C@@H](CCN)C(=O)NCCCCCCCCCCC(=O)O)NC(=O)[C@H](CO)NC(=O)[C@H](Cc2cnc[nH]2)NC(=O)[C@H](CC2CCCCC2)NC(=O)[C@H](CCN)NC1=O` (stereo partly drawn) [Example 2428] ({CH2CO}-[Thr(3ξ)]Y(Carboxymethyl)DWY(Carboxymethyl)[Bip]Y(Carboxymethyl)[NMeA][dL][Dab][Cha]HSC[Dab][Aun]-OH; thioether N-14): 259 nM.

In the case of `CC(C)C[C@H]1NC(=O)[C@H](C)N(C)C(=O)[C@H](Cc2ccc(C(N)=O)cc2)NC(=O)[C@H](Cc2ccc(-c3ccccc3)cc2)NC(=O)[C@H](Cc2ccc(C(N)=O)cc2)NC(=O)[C@H](Cc2c[nH]c3ccccc23)NC(=O)[C@H](CC(=O)O)NC(=O)[C@H](Cc2ccc(OCC(=O)O)cc2)NC(=O)[C@H](C(C)O)NC(=O)CSC[C@@H](C(=O)N[C@@H](CCN)C(=O)NCCCCCCCCCCC(=O)O)NC(=O)[C@H](CO)NC(=O)[C@H](Cc2cnc[nH]2)NC(=O)[C@H](CC2CCCCC2)NC(=O)[C@H](CCN)NC1=O` (stereo partly drawn) [Example 2429] ({CH2CO}-[Thr(3ξ)]Y(Carboxymethyl)DW[Phe(4-CONH2)][Bip][Phe(4-CONH2)][NMeA][dL][Dab][Cha]HSC[Dab][Aun]-OH; thioether N-14), the IC50 stood at 217 nM.

In the case of `Cc1cccc(C[C@@H]2NC(=O)[C@H](CC(=O)O)NC(=O)[C@H](Cc3ccc(OCC(=O)O)cc3)NC(=O)[C@H](C(C)O)NC(=O)CSC[C@@H](C(=O)N[C@@H](CCN)C(=O)NCCCCCCCCCCC(=O)O)NC(=O)[C@H](CO)NC(=O)[C@H](C(C)(C)O)NC(=O)[C@H](CC3CCCCC3)NC(=O)[C@H](CCN)NC(=O)[C@@H](CC(C)C)NC(=O)[C@H](C)N(C)C(=O)[C@H](Cc3ccc(OCC(=O)O)cc3)NC(=O)[C@H](Cc3ccc(-c4ccccc4)cc3)NC(=O)[C@H](Cc3ccc(C(=O)O)cc3)NC2=O)c1` (stereo partly drawn) [Example 2430] ({CH2CO}-[Thr(3ξ)]Y(Carboxymethyl)D[Phe(3-Me)][Phe(4-COOH)][Bip]Y(Carboxymethyl)[NMeA][dL][Dab][Cha][Val(3-OH)]SC[Dab][Aun]-OH; thioether N-14), the IC50 was 34.2 nM. Same read-out and setting: then `Cc1cccc(C[C@@H]2NC(=O)[C@H](CC(=O)O)NC(=O)[C@H](Cc3ccc(OCC(=O)O)cc3)NC(=O)[C@H](C(C)O)NC(=O)CSC[C@@H](C(=O)NCCOCCOCC(=O)NCCCCCCCCCCC(=O)O)NC(=O)[C@H](Cc3cnc[nH]3)NC(=O)[C@H](C(C)(C)O)NC(=O)[C@H](CC3CCCCC3)NC(=O)[C@H](CCN)NC(=O)[C@@H](CC(C)C)NC(=O)[C@H](C)N(C)C(=O)[C@H](Cc3ccc(OCC(=O)O)cc3)NC(=O)[C@H](Cc3ccc(-c4ccccc4)cc3)NC(=O)[C@H](Cc3ccc(C(=O)O)cc3)NC2=O)c1` (stereo partly drawn) [Example 2431] ({CH2CO}-[Thr(3ξ)]Y(Carboxymethyl)D[Phe(3-Me)][Phe(4-COOH)][Bip]Y(Carboxymethyl)[NMeA][dL][Dab][Cha][Val(3-OH)]HC[AEEA][Aun]-OH; thioether N-14), with 140 nM; and `CC(C)C[C@@H]1NC(=O)[C@H](Cc2c[nH]c3ccccc23)NC(=O)[C@H](CC(=O)O)NC(=O)[C@H](Cc2ccc(C(=O)O)cc2)NC(=O)[C@H](Cc2ccc(OCC(=O)O)cc2)NC(=O)CSC[C@@H](C(=O)NCCOCCOCC(=O)NCCCCCCCCCCC(=O)O)NC(=O)[C@H](CO)NC(=O)[C@H](C(C)O)NC(=O)[C@H](CC2CCCCC2)NC(=O)[C@H](CCN)NC(=O)[C@@H](CC(C)C)NC(=O)[C@H](C)N(C)C(=O)[C@H](C(C)C)NC(=O)[C@H](Cc2ccc(-c3ccccc3)cc2)NC1=O` (stereo partly drawn) [Example 2433] ({CH2CO}-Y(Carboxymethyl)[Phe(4-COOH)]DWL[Bip]V[NMeA][dL][Dab][Cha][Thr(3ξ)]SC[AEEA][Aun]-OH; thioether N-14), with 35.2 nM; and `CC(C)C[C@@H]1NC(=O)[C@H](Cc2c[nH]c3ccccc23)NC(=O)[C@H](CC(=O)O)NC(=O)[C@H](Cc2ccc(C(=O)O)cc2)NC(=O)[C@H](Cc2ccc(OCC(=O)O)cc2)NC(=O)CSC[C@@H](C(=O)NCCOCCOCC(=O)NCCCCCCCCCCC(=O)O)NC(=O)[C@H](Cc2cnc[nH]2)NC(=O)[C@H](C(C)O)NC(=O)[C@H](CC2CCCCC2)NC(=O)[C@H](CCN)NC(=O)[C@@H](CC(C)C)NC(=O)[C@H](C)N(C)C(=O)[C@H](C(C)C)NC(=O)[C@H](Cc2ccc(-c3ccccc3)cc2)NC1=O` (stereo partly drawn) [Example 2435] ({CH2CO}-Y(Carboxymethyl)[Phe(4-COOH)]DWL[Bip]V[NMeA][dL][Dab][Cha][Thr(3ξ)]HC[AEEA][Aun]-OH; thioether N-14), with 25.5 nM. On the same count and under the same terms, the same measure for `CC(C)C[C@@H]1NC(=O)[C@H](Cc2c[nH]c3ccccc23)NC(=O)[C@H](CC(=O)O)NC(=O)[C@H](Cc2ccc(OCC(=O)O)cc2)NC(=O)[C@H](Cc2ccc(OCC(=O)O)cc2)NC(=O)CSC[C@@H](C(=O)NCCOCCOCC(=O)NCCCCCCCCCCC(=O)O)NC(=O)[C@H](Cc2cnc[nH]2)NC(=O)[C@H](CO)NC(=O)[C@H](CC2CCCCC2)NC(=O)[C@H](CCN)NC(=O)[C@@H](CC(C)C)NC(=O)[C@H](C)N(C)C(=O)[C@H](C(C)C)NC(=O)[C@H](Cc2ccc(-c3ccccc3)cc2)NC1=O` [Example 2436] ({CH2CO}-Y(Carboxymethyl)Y(Carboxymethyl)DWL[Bip]V[NMeA][dL][Dab][Cha]SHC[AEEA][Aun]-OH; thioether N-14): 31.4 nM.

These data come from patent US20260070945A1, “MACROCYCLIC IMMUNOMODULATORS” (Bristol-Myers Squibb Company, priority 2022, published 2026).
